# Where a name gives a salt, the structure may show the parent alone.
smiles,measurement,value
C[C@@H]1OC(=O)N(C(=O)NCCCN2CCC(c3ccc(F)cc3)CC2)[C@H]1c1ccc(F)c(F)c1 (as salt: hydrochloride),melting point,80 to 83 °C

# — patent US6410554B1, “Combination therapy for the treatment of benign prostatic hyperplasia” (Merck & Co., Inc., priority 1998, dated 2002)
